What was measured:
Human VR2 [1] = molecular target: T1, Human VR2 (Homo sapiens, UniProt Q9Y5S1); experiment: Whole-cell patch-clamp of VR2 transiently expressed in HEK293 cells; type: cell-based
T1 construct: expressed in transfected cells; host or cells: Xenopus oocytes injected with cRNA
T1 sequence (Q9Y5S1 1-764): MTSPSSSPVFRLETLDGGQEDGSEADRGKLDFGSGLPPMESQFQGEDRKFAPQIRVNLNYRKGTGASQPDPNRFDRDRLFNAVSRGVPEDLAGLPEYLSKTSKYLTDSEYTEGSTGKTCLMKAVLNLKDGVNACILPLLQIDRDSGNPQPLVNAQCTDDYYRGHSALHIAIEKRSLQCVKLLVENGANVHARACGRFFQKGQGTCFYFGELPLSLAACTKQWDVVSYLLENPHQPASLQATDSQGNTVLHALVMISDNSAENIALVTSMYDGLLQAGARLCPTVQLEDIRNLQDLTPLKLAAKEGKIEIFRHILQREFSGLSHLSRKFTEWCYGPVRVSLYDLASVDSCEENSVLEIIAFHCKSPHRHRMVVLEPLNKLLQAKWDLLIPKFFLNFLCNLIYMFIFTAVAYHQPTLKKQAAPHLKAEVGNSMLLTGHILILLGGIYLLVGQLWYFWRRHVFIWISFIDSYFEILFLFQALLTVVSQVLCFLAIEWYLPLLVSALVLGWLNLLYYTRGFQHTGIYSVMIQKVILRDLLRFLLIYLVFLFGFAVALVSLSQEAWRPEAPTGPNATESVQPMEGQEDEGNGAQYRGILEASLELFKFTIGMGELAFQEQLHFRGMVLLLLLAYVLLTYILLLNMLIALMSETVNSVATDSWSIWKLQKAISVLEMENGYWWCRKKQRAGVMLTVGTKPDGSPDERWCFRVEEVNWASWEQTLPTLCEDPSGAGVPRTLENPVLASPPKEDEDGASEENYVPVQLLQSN
Description: Human VR2 was functionally characterized in both HEK293 cells and Xenopus oocytes using electrophysiological methods. VR2 (in the pcDNA3.1 vector purchased by Invitrogen) was transiently expressed in HEK293 cells (ATCC) and recordings were performed 48 hours after transfection of cells using the whole-cell patch-clamp method (described in Bertil Hille, Ionin Channels of excitable membranes, 1992; Hammill et al. (1981) Pluger Arch. 391:85-100).

Human VR2 [2] = molecular target: T1, Human VR2; experiment: Two-electrode voltage-clamp of VR2 in Xenopus oocytes; type: cell-based; settings: heat stimulation (48-50° C.), 1-10 μM concentration
Description: For the oocyte studies, human VR2 was subcloned into an oocyte expression vector containing 5′- and 3′-UTR of Xenopus β-globin (Chiara et al. (1999) Biochemistry 38(20)6689-6698). In vitro trasncription was carried out as described in Chiara et al. (supra) and cRNA (10-100 ng) was then injected into the oocytes. VR2 function was characterized in the oocytes 48 hours after cRNA injection using a standard two-electrode voltage-clamp.

Human VR2 [3] = molecular target: T1, Human VR2; experiment: Binding of [3H]-resiniferatoxin to membranes isolated from HEK293 cell homogenates (VR2); settings: 0.1-10 nM concentration
human VR1 = molecular target: T2, human VR1 (Homo sapiens, UniProt Q8NER1, A11T/S41P/T469I); experiment: Binding of [3H]-resiniferatoxin to membranes isolated from HEK293 cell homogenates (VR1); settings: 0.1-10 nM concentration
T2 construct: expressed in transfected cells; host or cells: HEK293 cells (membranes)
T2 sequence (Q8NER1 whole entry A11T/S41P/T469I): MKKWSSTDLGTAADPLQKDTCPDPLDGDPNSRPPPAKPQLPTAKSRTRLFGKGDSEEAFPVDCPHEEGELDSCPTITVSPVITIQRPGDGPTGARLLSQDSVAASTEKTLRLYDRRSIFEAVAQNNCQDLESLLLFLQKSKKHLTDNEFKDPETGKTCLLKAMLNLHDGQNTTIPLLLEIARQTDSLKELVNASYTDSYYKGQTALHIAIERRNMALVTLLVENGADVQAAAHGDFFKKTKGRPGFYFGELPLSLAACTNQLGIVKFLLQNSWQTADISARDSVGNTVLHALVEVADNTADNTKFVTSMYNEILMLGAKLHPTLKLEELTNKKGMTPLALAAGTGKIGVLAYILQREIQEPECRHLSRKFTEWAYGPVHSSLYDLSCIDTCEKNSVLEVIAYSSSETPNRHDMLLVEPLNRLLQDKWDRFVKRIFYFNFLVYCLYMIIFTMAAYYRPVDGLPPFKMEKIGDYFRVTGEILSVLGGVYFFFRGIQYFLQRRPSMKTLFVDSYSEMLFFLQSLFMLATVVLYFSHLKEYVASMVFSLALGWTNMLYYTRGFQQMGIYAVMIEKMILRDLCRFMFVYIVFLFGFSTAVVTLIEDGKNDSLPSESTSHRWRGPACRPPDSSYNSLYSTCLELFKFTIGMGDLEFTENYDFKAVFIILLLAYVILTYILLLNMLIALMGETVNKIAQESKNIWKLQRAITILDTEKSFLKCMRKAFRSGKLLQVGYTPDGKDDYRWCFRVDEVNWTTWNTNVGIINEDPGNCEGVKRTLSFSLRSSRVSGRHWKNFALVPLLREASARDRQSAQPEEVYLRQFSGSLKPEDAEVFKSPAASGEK

`COc1cc(CNC(=O)CCCC/C=C/C(C)C)ccc1O` [Capsaicin, capsaicin] was tested, and the “induction of currents from VR2” value (Human VR2 [1]; 1-10 μM concentration) was “do not induce any currents”.
With `Oc1cc2c(cc1O)CN(C(=S)NCCc1ccc(Cl)cc1)CCC2` [capsazepin, capsazepine] the “block of heat-evoked currents of VR2” value (Human VR2 [1]; heat stimulation (>50° C.), 10 μM concentration) was “reversibly blocked” and the “block of the heat response of VR2” value (Human VR2 [2]) was “blocks the heat response of VR2 reversibly”.
With `C=C(C)[C@]12C[C@@H](C)[C@@]34O[C@](Cc5ccccc5)(O[C@@H]1[C@@H]3C=C(COC(=O)Cc1ccc(O)c(OC)c1)C[C@]1(O)C(=O)C(C)=C[C@@H]41)O2` [resiniferatoxin] the “induction of currents from VR2” value (Human VR2 [1]; 0.1-3 μM concentration) was “do not induce any currents”, the “specific binding to VR2” value (Human VR2 [3]) was “no specific binding” and the “binding to human VR1” value (human VR1) was “high affinities”.

From US7323314B2, “Members of the capsaicin/vanilloid receptor family of proteins and uses thereof” (Bayer HealthCare AG, priority 1998, dated 2008)
